The source made the active and inactive calls. The rule behind the calls is not given here.

For the data set, the system named is CCRIS mutagenicity, Ames/micronucleus/aberration tests. Nature of the data set: CCRIS mutagenicity studies.
Where [1] appears, read: Test System: AMES SALMONELLA TYPHIMURIUM, Strain/Indicator: TA98, Metabolic Activation: NONE, Method: STANDARD PLATE.
Where [2] appears, read: Test System: AMES SALMONELLA TYPHIMURIUM, Strain/Indicator: TA100, Metabolic Activation: NONE, Method: STANDARD PLATE.
Setting [3] is: Test System: AMES SALMONELLA TYPHIMURIUM, Strain/Indicator: TA98, Metabolic Activation: NONE, Method: PREINCUBATION
The mark [4] stands for this setting: Test System: AMES SALMONELLA TYPHIMURIUM, Strain/Indicator: TA98, Metabolic Activation: RAT, LIVER, S-9, AROCLOR 1254, Method: PREINCUBATION
Setting [5] is: Test System: AMES SALMONELLA TYPHIMURIUM, Strain/Indicator: TA100, Metabolic Activation: NONE, Method: PREINCUBATION
Setting [6] is: Test System: AMES SALMONELLA TYPHIMURIUM, Strain/Indicator: TA100, Metabolic Activation: RAT, LIVER, S-9, AROCLOR 1254, Method: PREINCUBATION
Where [7] appears, read: Test System: AMES SALMONELLA TYPHIMURIUM, Strain/Indicator: TA100, Metabolic Activation: RAT, LIVER, S-9, AROCLOR 1254, Method: STANDARD PLATE.
The mark [8] stands for this setting: Test System: AMES SALMONELLA TYPHIMURIUM, Strain/Indicator: TA98, Metabolic Activation: RAT, LIVER, S-9, AROCLOR 1254, Method: STANDARD PLATE.
Where [9] appears, read: Test System: AMES SALMONELLA TYPHIMURIUM, Strain/Indicator: TA1535, Metabolic Activation: NONE, Method: STANDARD PLATE.
[10] abbreviates: Test System: AMES SALMONELLA TYPHIMURIUM, Strain/Indicator: TA1535, Metabolic Activation: RAT, LIVER, S-9, AROCLOR 1254, Method: STANDARD PLATE.
Where [11] appears, read: Test System: AMES SALMONELLA TYPHIMURIUM, Strain/Indicator: TA1537, Metabolic Activation: NONE, Method: STANDARD PLATE.
Where [12] appears, read: Test System: AMES SALMONELLA TYPHIMURIUM, Strain/Indicator: TA1537, Metabolic Activation: RAT, LIVER, S-9, AROCLOR 1254, Method: STANDARD PLATE.

In the case of `CC1(C)CCC[C@]2(C)[C@@H](C=O)C(C=O)=CC[C@@H]12`, the mutagenic call was “inactive; negative” under setting [1]; “inactive; negative” under setting [2]; “inactive; negative” (Test System: AMES SALMONELLA TYPHIMURIUM, Strain/Indicator: TA2637, Metabolic Activation: NONE, Method: STANDARD PLATE); “inactive; negative” (Test System: CHINESE HAMSTER V-79, Strain/Indicator: V-79/6-THIOGUANINE (HGPRT), Metabolic Activation: NONE).
Turning to `Cc1c(O)cc2c(c1O)C(=O)c1ccccc1C2=O`, the mutagenic call by setting is: under setting [3], “inactive; negative”; under setting [4], “active; positive”; (Test System: AMES SALMONELLA TYPHIMURIUM, Strain/Indicator: TA98, Metabolic Activation: RAT, LIVER, S-9, PCB, Method: PREINCUBATION) “active; positive”; under setting [5], “inactive; negative”; under setting [6], “active; positive”; (Test System: AMES SALMONELLA TYPHIMURIUM, Strain/Indicator: TA100, Metabolic Activation: RAT, LIVER, S-9, PCB, Method: PREINCUBATION) “active; positive”. In addition, the mutagenic call is, setting by setting: (Test System: AMES SALMONELLA TYPHIMURIUM, Strain/Indicator: TA1537, Metabolic Activation: NONE, Method: PREINCUBATION) “inactive; negative”; (Test System: AMES SALMONELLA TYPHIMURIUM, Strain/Indicator: TA1537, Metabolic Activation: RAT, LIVER, S-9, AROCLOR 1254, Method: PREINCUBATION) “active; positive”; (Test System: UDS RODENT HEPATOCYTES, Strain/Indicator: THY INCORP, Metabolic Activation: NONE) “active; positive”.
On to `C=C(C)C1CCC(=C)C2C3=C(C[C@H](C)C3=O)C(=O)C(C)=C[C@@H]12` (stereo partly specified), for which the mutagenic call was “inactive; negative” under setting [1]; “inactive; negative” (Test System: AMES SALMONELLA TYPHIMURIUM, Strain/Indicator: TA98, Method: STANDARD PLATE); “inactive; negative” under setting [2]; “inactive; negative” (Test System: AMES SALMONELLA TYPHIMURIUM, Strain/Indicator: TA100, Method: STANDARD PLATE).
Turning to `Cc1c(/C=N/OCc2ccccc2)c2cc([N+](=O)[O-])ccc2n1Cc1cccc([N+](=O)[O-])c1`, the mutagenic call under setting [1] was “active; positive”; the mutagenic call (Test System: AMES SALMONELLA TYPHIMURIUM, Strain/Indicator: TA98, Metabolic Activation: RAT, LIVER, S-9, PHENOBARBITAL AND BETA-NAPHTHOFLAVONE, Method: STANDARD PLATE) was “active; positive”; the mutagenic call under setting [2] was “inactive; negative”; the mutagenic call (Test System: AMES SALMONELLA TYPHIMURIUM, Strain/Indicator: TA100, Metabolic Activation: RAT, LIVER, S-9, PHENOBARBITAL AND BETA-NAPHTHOFLAVONE, Method: STANDARD PLATE) was “inactive; negative”.
For the compound `O[C@H]1C=Cc2c(ccc3cc4c5c(ccc4cc23)[C@H](O)[C@@H](O)C=C5)[C@@H]1O`, the mutagenic call under setting [7] is “inactive; negative”.
In the case of `N=C1C=CC2=C(S(=O)(=O)O)C=CC(=O)C2=C1NNc1ccc(-c2ccc(NNC3=C4C(=O)C=CC(S(=O)(=O)O)=C4C=CC3=N)cc2)cc1`, under “Test System: AMES SALMONELLA TYPHIMURIUM, Strain/Indicator: TA98, Metabolic Activation: HAMSTER, LIVER, S-9, Method: PREINCUBATION (PRIVAL METHOD)”, the mutagenic call was “active; positive”.
As to `O=C(CCl)c1ccc(Cl)cc1Cl`, the mutagenic call was “inactive; negative” (Test System: AMES SALMONELLA TYPHIMURIUM, Strain/Indicator: TA98, Metabolic Activation: HAMSTER, LIVER, S-9, AROCLOR 1254, Method: STANDARD PLATE); “inactive; negative” under setting [1]; “inactive; negative” under setting [8]; “inactive; negative” (Test System: AMES SALMONELLA TYPHIMURIUM, Strain/Indicator: TA100, Metabolic Activation: HAMSTER, LIVER, S-9, AROCLOR 1254, Method: STANDARD PLATE); “inactive; negative” under setting [2]; “inactive; negative” under setting [7]. For the same compound, the mutagenic call was “inactive; negative” (Test System: AMES SALMONELLA TYPHIMURIUM, Strain/Indicator: TA1535, Metabolic Activation: HAMSTER, LIVER, S-9, AROCLOR 1254, Method: STANDARD PLATE); “inactive; negative” under setting [9]; “inactive; negative” under setting [10]; “inactive; negative” (Test System: AMES SALMONELLA TYPHIMURIUM, Strain/Indicator: TA1537, Metabolic Activation: HAMSTER, LIVER, S-9, AROCLOR 1254, Method: STANDARD PLATE); “inactive; negative” under setting [11]; “inactive; negative” under setting [12]. The mutagenic call reads like this: (Test System: MOUSE LYMPHOMA, Strain/Indicator: L5178Y (TK+/TK-), Metabolic Activation: NONE, Method: SUSPENSION/PLATE) “inactive; negative. reevaluation of results: negative”; (Test System: MOUSE LYMPHOMA, Strain/Indicator: L5178Y (TK+/TK-), Metabolic Activation: RAT, LIVER, S-9, AROCLOR 1254, Method: SUSPENSION/PLATE) “inactive; negative. reevaluation of results: negative”.
`COc1ccc2nc3cc(Cl)ccc3c(NCCCNCCCl)c2n1`: the mutagenic call under setting [1] is “active; positive”; the mutagenic call under setting [2] is “active; positive”; the mutagenic call under setting [9] was “inactive; negative”; the mutagenic call (Test System: AMES SALMONELLA TYPHIMURIUM, Strain/Indicator: TA1536, Metabolic Activation: NONE, Method: STANDARD PLATE) is “active; positive”; the mutagenic call under setting [11] was “active; positive”; the mutagenic call (Test System: AMES SALMONELLA TYPHIMURIUM, Strain/Indicator: TA1538, Metabolic Activation: NONE, Method: STANDARD PLATE) was “active; positive”. In addition, the mutagenic call (Test System: CHO/HGPRT, Strain/Indicator: CHO-K1-BH4, Metabolic Activation: NONE, Method: STANDARD PLATE) is “active; positive”.
For `CCCn1cc2c3c(cccc31)C1C[C@@H](C)CN(C#N)[C@@H]1C2` (stereo partly specified), the mutagenic call under setting [7] was “active; positive”.
As for `Cn1c(N)nc2cc(O)ccc21`, the mutagenic call is “inactive; negative” under setting [4] and “inactive; negative” under setting [6].
Regarding `O=C1/C(=N\Nc2ccc(/C=C/c3ccc(N/N=C4/C=C(S(=O)(=O)O)c5cccnc5C4=O)cc3S(=O)(=O)O)c(S(=O)(=O)O)c2)C=C(S(=O)(=O)O)c2cccnc21`, the mutagenic call reads like this: (Test System: Mouse lymphoma, Strain/Indicator: L5178Y (tk+/tk-), Metabolic Activation: None, Method: Suspension/plate) “inactive; negative”; (Test System: Mouse lymphoma, Strain/Indicator: L5178Y (tk+/tk-), Metabolic Activation: Rat, Liver, S-9, Aroclor 1254, Method: Suspension/plate) “inactive; negative”.
For `CC(=O)NSc1c2cc(O)ccc2nc2ccc(O)cc12`, the mutagenic call (Test System: AMES SALMONELLA TYPHIMURIUM, Strain/Indicator: TA97A, Metabolic Activation: NONE, Method: PREINCUBATION) is “active; positive”.
As for `c1ccc([C@H]2O[C@@H]2c2ccccc2)cc1`, the mutagenic call was “inactive; negative” under setting [2] and “inactive; negative” under setting [9].
Take `[Cl][Pt-2]([Cl])([Cl])[Cl]`: the mutagenic call was “active; positive” under setting [3], “active; positive” under setting [4], “active; positive” under setting [5] and “active; positive” under setting [6].
In the case of `O=[N+]([O-])c1ccccc1SS/C(Cl)=C(\Cl)C(Cl)=C(Cl)Cl`, the mutagenic call is, setting by setting: (Test System: AMES SALMONELLA TYPHIMURIUM, Strain/Indicator: TA100(DNP6), Metabolic Activation: NONE, Method: PREINCUBATION) “active; positive”; (Test System: AMES SALMONELLA TYPHIMURIUM, Strain/Indicator: TA100(NR), Metabolic Activation: NONE, Method: PREINCUBATION) “active; positive”.
On to `O=CC=C(Cl)Cl`, for which the mutagenic call is “active; positive” under setting [1]; “inactive; negative” under setting [8]; “active; positive” under setting [2]; “active; positive” under setting [7]; “active; positive” under setting [9]; “active; positive” under setting [10]. Further, the mutagenic call reads like this: under setting [11], “inactive; negative”; under setting [12], “inactive; negative”.

Source of the values: PubChem BioAssay AID1259407 (Chemical Carcinogenesis Research Information System (CCRIS), 2018).
